Measured values taken from paper PMC11339798, “Dual inhibitors of Pseudomonas aeruginosa virulence factors LecA and LasB” (Chemical Science, 2024).

Tests used:
[1] = Disulfide formation assay: thiol stability in P. aeruginosa culture supernatant (LC-MS); assay type: in vitro ADME; conditions: Pseudomonas aeruginosa, pH 7.4, P. aeruginosa culture supernatant, 37 °C, read-out: thiol half-life (conversion into disulfide)
Source text: Disulfide formation in the presence of P. aeruginosa culture supernatant was studied for the two inhibitors 11 and 12 and analyzed by liquid chromatography-mass spectrometry (LC-MS) (Fig. 3B). Disulfides 26 and 27 were synthesized via oxidation with H2O2 in DMSO/H2O and used as reference compounds for the stability assay (Fig. 3A). […] The separation of those two peaks of the benzylated derivative 26 using preparative HPLC gave 26a and 26b (m/z of 901.28, Fig. S1 ^†).
In the presence of the bacterial culture supernatant of P. aeruginosa, the conversion of thiols 11 and 12 into the corresponding disulfides 26 and 27 was monitored at 37 °C and thiol half-lives of 48 min for 11 and 70 min for 12 were determined (Fig. 3B).
Disulfide formation assay
The stability of two thiols 11 and 12 and their ability to form the corresponding disulfides was analyzed by HPLC-MS. […] Samples were drawn over 4.5 hours and analyzed by LC-MS using a RP-18 column 100/2 Nucleoshell RP18plus, 2.7 μm from Macherey-Nagel, Germany (H2O/MeCN + 0.1% formic acid, 15 – 55% MeCN, retention time (t R) 5.8 min (11 or 12), 6.1 min and 6.3 min (disulfide products 26 or 27) on a Thermo Dionex Ultimate 3000 HPLC coupled to a Bruker amaZon SL mass spectrometer, with UV detection at 254 nm). Thiol half-lives were determined by analysis of the obtained graphs and values of 80 min for 11 and 46 min for 12 were obtained […]

[2] = test system: Pseudomonas aeruginosa PA14; test: Antibacterial activity (MIC, ESCMID guidelines); assay type: cell-based; conditions: for MIC: Pseudomonas aeruginosa, PA14; for antimicrobial activity (bacterial viability): up to 100 μM
Protocol: (§1) Given that the novel inhibitors contain a free thiol as a strong zinc binding group, we analyzed the selectivity of the diastereomeric mixtures 11 and 12 on six human matrix metalloproteases (MMPs) as putative off-targets.[53] […] Furthermore, we tested the impact of 11 and 12 on bacterial viability to ensure that these compounds are antivirulence agents and not antibiotics. […]
Selectivity and toxicity assays […]
Antimicrobial activity against P. aeruginosa PA14 was tested using ESCMID guidelines and […]

MMP-8 = biological target: T1, MMP-8 (Homo sapiens, UniProt P22894); test: MMP selectivity assay (SensoLyte 520 Generic MMP Activity Kit); assay type: biochemical; conditions: read-out: Percent inhibition at 100 µM, MMP-8, 100 µM
T1 construct: purchased AnaSpec (Fremont, CA, USA)
T1 sequence (P22894 101-467): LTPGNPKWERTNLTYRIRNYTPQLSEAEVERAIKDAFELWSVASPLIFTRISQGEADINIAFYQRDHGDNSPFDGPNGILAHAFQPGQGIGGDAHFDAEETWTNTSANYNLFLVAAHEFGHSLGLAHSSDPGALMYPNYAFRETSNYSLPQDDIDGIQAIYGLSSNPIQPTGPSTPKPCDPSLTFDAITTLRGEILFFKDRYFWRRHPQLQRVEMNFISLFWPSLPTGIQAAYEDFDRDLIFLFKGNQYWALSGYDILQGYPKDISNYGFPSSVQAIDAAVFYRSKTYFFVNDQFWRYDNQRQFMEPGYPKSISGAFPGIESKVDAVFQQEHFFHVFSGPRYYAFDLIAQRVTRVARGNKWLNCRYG
Source text: as §1
(§2) Selectivity and toxicity assays
(§3) Human MMPs -1, -2, -3, -7, -8 and -14 along with the SensoLyte 520 Generic MMP Activity
(§4) Kit*Fluorimetric* were purchased from AnaSpec (Fremont, CA, USA). The inhibition assay

MMP-1 = biological target: T2, MMP-1 (Homo sapiens, UniProt P03956); test: as above; assay type: biochemical; conditions: read-out: Percent inhibition at 100 µM, MMP-1, 100 µM
T2 construct: purchased AnaSpec (Fremont, CA, USA)
T2 sequence (P03956 100-469): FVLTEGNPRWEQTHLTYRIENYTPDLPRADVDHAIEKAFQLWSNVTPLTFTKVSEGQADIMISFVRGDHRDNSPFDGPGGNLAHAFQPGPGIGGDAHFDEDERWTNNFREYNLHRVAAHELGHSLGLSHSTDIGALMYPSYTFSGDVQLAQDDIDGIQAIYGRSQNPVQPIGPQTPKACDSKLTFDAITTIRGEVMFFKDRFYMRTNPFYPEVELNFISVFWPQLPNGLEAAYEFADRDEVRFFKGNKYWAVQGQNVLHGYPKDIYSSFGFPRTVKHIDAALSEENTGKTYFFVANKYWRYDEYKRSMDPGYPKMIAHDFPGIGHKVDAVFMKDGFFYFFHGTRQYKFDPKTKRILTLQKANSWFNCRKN
Source text: as §1, §2, §3, §4

MMP-7 = biological target: T3, MMP-7 (Homo sapiens, UniProt P09237); test: as above; assay type: biochemical; conditions: read-out: Percent inhibition at 100 µM, MMP-7, 100 µM
T3 construct: purchased AnaSpec (Fremont, CA, USA)
T3 sequence (P09237 95-267): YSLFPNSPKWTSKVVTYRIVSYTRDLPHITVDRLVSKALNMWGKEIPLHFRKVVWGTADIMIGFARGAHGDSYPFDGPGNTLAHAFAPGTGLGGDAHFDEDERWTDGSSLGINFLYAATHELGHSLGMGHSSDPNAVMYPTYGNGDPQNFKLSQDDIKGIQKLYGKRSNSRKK
Source text: as §1, §2, §3, §4

MMP-3 = biological target: T4, MMP-3 (Homo sapiens, UniProt P08254); test: as above; assay type: biochemical; conditions: read-out: Percent inhibition at 100 µM, MMP-3, 100 µM
T4 construct: purchased AnaSpec (Fremont, CA, USA)
T4 sequence (P08254 100-477): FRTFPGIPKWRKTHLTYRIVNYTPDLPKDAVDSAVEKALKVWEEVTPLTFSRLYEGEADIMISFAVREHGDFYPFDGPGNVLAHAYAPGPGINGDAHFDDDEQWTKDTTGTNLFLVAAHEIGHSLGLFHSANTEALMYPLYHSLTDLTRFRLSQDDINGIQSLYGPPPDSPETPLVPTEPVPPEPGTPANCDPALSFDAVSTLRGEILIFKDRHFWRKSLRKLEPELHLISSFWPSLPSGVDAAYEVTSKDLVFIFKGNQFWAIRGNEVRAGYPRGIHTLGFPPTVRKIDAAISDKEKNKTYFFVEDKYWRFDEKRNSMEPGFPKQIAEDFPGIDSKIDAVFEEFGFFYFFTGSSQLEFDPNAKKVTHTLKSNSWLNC
Source text: as §1, §2, §3, §4

MMP-2 = biological target: T5, MMP-2 (Homo sapiens, UniProt P08253); test: as above; assay type: biochemical; conditions: read-out: Percent inhibition at 100 µM, MMP-2, 100 µM
T5 construct: purchased AnaSpec (Fremont, CA, USA)
T5 sequence (P08253 110-660): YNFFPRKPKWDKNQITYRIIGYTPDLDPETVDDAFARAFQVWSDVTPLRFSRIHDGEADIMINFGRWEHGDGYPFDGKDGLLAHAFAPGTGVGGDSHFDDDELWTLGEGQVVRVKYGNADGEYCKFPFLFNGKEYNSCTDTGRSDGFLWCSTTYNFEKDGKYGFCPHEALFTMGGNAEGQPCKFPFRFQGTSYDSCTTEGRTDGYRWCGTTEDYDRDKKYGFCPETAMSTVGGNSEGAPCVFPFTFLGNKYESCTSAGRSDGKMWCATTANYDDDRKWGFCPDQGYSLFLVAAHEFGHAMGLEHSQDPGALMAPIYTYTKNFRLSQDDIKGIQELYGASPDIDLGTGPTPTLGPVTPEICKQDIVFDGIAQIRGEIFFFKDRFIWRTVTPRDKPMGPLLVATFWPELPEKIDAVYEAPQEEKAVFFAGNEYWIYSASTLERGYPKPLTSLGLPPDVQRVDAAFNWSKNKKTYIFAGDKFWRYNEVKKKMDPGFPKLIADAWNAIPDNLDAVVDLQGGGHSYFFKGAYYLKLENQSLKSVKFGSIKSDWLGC
Source text: as §1, §2, §3, §4

MMP-14 = biological target: T6, MMP-14 (Homo sapiens, UniProt P50281); test: as above; assay type: biochemical; conditions: read-out: Percent inhibition at 100 µM, MMP-14, 100 µM
T6 construct: purchased AnaSpec (Fremont, CA, USA)
Source text: as §1, §2, §3, §4

Question: What does the source list for O=C(Nc1ccc(S[C@@H]2O[C@H](CO)[C@H](O)[C@H](O)[C@H]2O)cc1)C(S)Cc1ccccc1 (stereo partly drawn) [Compound 11]?
Answer: half-life at 1.25 mM [1]: 80 min; MIC [2]: > 100 µM; antimicrobial activity (bacterial viability) [2]: No antimicrobial activity was detected; inhibition at 100 µM (MMP-8): < 10%; inhibition at 100 µM (MMP-1): 10 ± 5%; inhibition at 100 µM (MMP-7): < 10%; inhibition at 100 µM (MMP-3): < 10%; inhibition at 100 µM (MMP-2): < 10%; inhibition at 100 µM (MMP-14): < 10%

Question: For CC(C)CC(S)C(=O)Nc1ccc(S[C@@H]2O[C@H](CO)[C@H](O)[C@H](O)[C@H]2O)cc1 (stereo partly drawn) [Compound 12], which half-life at 1.25 mM [1] is on record?
Answer: Its half-life at 1.25 mM is 46 min.

Question: What about the MIC [2] of the same molecule?
Answer: Its MIC is over 100 µM.

Question: What about the “antimicrobial activity (bacterial viability)” value [2] of the same molecule?
Answer: Its value is “No antimicrobial activity was detected”.

Question: And the inhibition at 100 µM (MMP-8)?
Answer: The inhibition at 100 µM was under 10%.

Question: What about the inhibition at 100 µM (MMP-1) of the same molecule?
Answer: The inhibition at 100 µM was under 10%.

Question: And the inhibition at 100 µM (MMP-7)?
Answer: The inhibition at 100 µM was under 10%.

Question: What about the inhibition at 100 µM (MMP-3) of the same molecule?
Answer: Its inhibition at 100 µM is under 10%.

Question: And the inhibition at 100 µM (MMP-2)?
Answer: Its inhibition at 100 µM is 19 ± 3%.

Question: And the inhibition at 100 µM (MMP-14)?
Answer: Its inhibition at 100 µM is 19 ± 5%.
